Tests used:
Format in all cases: functional
KM12 [1] = test: Growth inhibition of human KM12 cells by sulforhodamine B assay
HCT-15 [2] = test: Growth inhibition of human HCT15 cells by sulforhodamine B assay
COLO 205 [3] = test: Growth inhibition of human COLO205 cells by sulforhodamine B assay
NCI-H460 = test: Growth inhibition of human NCI-H460 cells by sulforhodamine B assay
MOLT-4 = test: Growth inhibition of human MOLT4 cells by sulforhodamine B assay
IGROV-1 [4] = test: Growth inhibition of human IGROV1 cells assessed as cell growth at 10^-8 M by sulforhodamine B assay; conditions: read-out: Activity
MDA-MB-435 = test: Growth inhibition of human MDA-MB-435 cells assessed as cell growth at 10^-8 M by sulforhodamine B assay; conditions: read-out: Activity
HCT-15 [5] = test: Growth inhibition of human HCT15 cells assessed as cell growth at 10^-8 M by sulforhodamine B assay; conditions: read-out: Activity
COLO 205 [6] = test: Growth inhibition of human COLO205 cells assessed as cell growth at 10^-8 M by sulforhodamine B assay; conditions: read-out: Activity
RPMI-8226 = test: Growth inhibition of human RPMI8226 cells assessed as cell growth at 10^-8 M by sulforhodamine B assay; conditions: read-out: Activity
MDA-MB-231 [7] = test: Growth inhibition of human MDA-MB-231 cells by sulforhodamine B assay
MCF7 = test: Growth inhibition of human MCF7 cells by sulforhodamine B assay
A498 = test: Growth inhibition of human A498 cells by sulforhodamine B assay
OVCAR-3 = test: Growth inhibition of human OVCAR3 cells by sulforhodamine B assay
M14 = test: Growth inhibition of human M14 cells by sulforhodamine B assay
Malme-3M [8] = test: Growth inhibition of human MALME-3M cells by sulforhodamine B assay
T47D = test: Growth inhibition of human T47D cells assessed as cell growth at 10^-4 M by sulforhodamine B assay; conditions: read-out: Activity
[9] = Growth inhibition of human Hs 578T cells assessed as cell growth at 10^-4 M by sulforhodamine B assay; conditions: read-out: Activity
UO-31 [10] = test: Growth inhibition of human UO31 cells assessed as cell growth at 10^-4 M by sulforhodamine B assay; conditions: read-out: Activity
OVCAR-4 = test: Growth inhibition of human OVCAR4 cells assessed as cell growth at 10^-4 M by sulforhodamine B assay; conditions: read-out: Activity
IGROV-1 [11] = test: Growth inhibition of human IGROV1 cells assessed as cell growth at 10^-4 M by sulforhodamine B assay; conditions: read-out: Activity
SNB-75 = test: Growth inhibition of human SNB75 cells assessed as cell growth at 10^-4 M by sulforhodamine B assay; conditions: read-out: Activity
SNB-19 = test: Growth inhibition of human SNB19 cells assessed as cell growth at 10^-4 M by sulforhodamine B assay; conditions: read-out: Activity
SF-539 = test: Growth inhibition of human SF539 cells assessed as cell growth at 10^-4 M by sulforhodamine B assay; conditions: read-out: Activity
KM12 [12] = test: Growth inhibition of human KM12 cells assessed as cell growth at 10^-4 M by sulforhodamine B assay; conditions: read-out: Activity
MDA-MB-231 [13] = test: Growth inhibition of human MDA-MB-231 cells assessed as cell growth at 10^-6 M by sulforhodamine B assay; conditions: read-out: Activity
UO-31 [14] = test: Growth inhibition of human UO31 cells assessed as cell growth at 10^-6 M by sulforhodamine B assay; conditions: read-out: Activity
TK-10 = test: Growth inhibition of human TK10 cells assessed as cell growth at 10^-6 M by sulforhodamine B assay; conditions: read-out: Activity
786-0 = test: Growth inhibition of human 786-0 cells assessed as cell growth at 10^-6 M by sulforhodamine B assay; conditions: read-out: Activity
IGROV-1 [15] = test: Growth inhibition of human IGROV1 cells assessed as cell growth at 10^-6 M by sulforhodamine B assay; conditions: read-out: Activity
UACC-62 = test: Growth inhibition of human UACC62 cells assessed as cell growth at 10^-6 M by sulforhodamine B assay; conditions: read-out: Activity
Malme-3M [16] = test: Growth inhibition of human MALME-3M cells assessed as cell growth at 10^-6 M by sulforhodamine B assay; conditions: read-out: Activity
SR = test: Growth inhibition of human SR cells assessed as cell growth at 10^-6 M by sulforhodamine B assay; conditions: read-out: Activity
BT-549 = test: Growth inhibition of human BT549 cells assessed as cell growth at 10^-7 M by sulforhodamine B assay; conditions: read-out: Activity
RXF 393 = test: Growth inhibition of human RXF393 cells assessed as cell growth at 10^-7 M by sulforhodamine B assay; conditions: read-out: Activity
OVCAR-8 = test: Growth inhibition of human OVCAR8 cells assessed as cell growth at 10^-7 M by sulforhodamine B assay; conditions: read-out: Activity
OVCAR-5 = test: Growth inhibition of human OVCAR5 cells assessed as cell growth at 10^-7 M by sulforhodamine B assay; conditions: read-out: Activity
PC-3 = test: Growth inhibition of human PC3 cells assessed as cell growth at 10^-8 M by sulforhodamine B assay; conditions: read-out: Activity
[17] = read-out: LC50 (the source's name)
[18] = read-out: pLC50 (the source's name) (converted)

Q: For `C/C=C(/C)C(=O)O[C@@H]1CC(C)(C)C[C@H]2C3=CC[C@@H]4[C@@]5(C)CC[C@H](O)C(C)(C)[C@@H]5CC[C@@]4(C)[C@]3(C)CC[C@@]12C(=O)O` [Reduced Lantadene A], which GI50 (KM12 [1]; read-out: GI50) is on record?
A: 1.35 µM

Q: And the TGI (KM12 [1]; read-out: TGI)?
A: 2.93 µM

Q: And the GI50 (KM12 [1]; read-out: pGI50 (converted))?
A: 1.35 µM

Q: And the TGI (KM12 [1]; read-out: pTGI (converted))?
A: 2.95 µM

Q: And the GI50 (HCT-15 [2]; read-out: GI50)?
A: 2.58 µM

Q: What about the LC50 (50% lethal concentration) (HCT-15 [2]; read-out: LC50) of the same compound?
A: 62.6 µM

Q: And the TGI (HCT-15 [2]; read-out: TGI)?
A: 11.5 µM

Q: What about the GI50 (HCT-15 [2]; read-out: pGI50 (converted)) of the same compound?
A: 2.57 µM

Q: And the LC50 (50% lethal concentration) (HCT-15 [2]; read-out: pLC50 (converted))?
A: 63.1 µM

Q: And the TGI (HCT-15 [2]; read-out: pTGI (converted))?
A: 11.5 µM

Q: What about the GI50 (COLO 205 [3]; read-out: GI50) of the same compound?
A: 2.11 µM

Q: What about the GI50 (COLO 205 [3]; read-out: pGI50 (converted)) of the same compound?
A: 2.09 µM

Q: What about the GI50 (NCI-H460; read-out: GI50) of the same compound?
A: 2.84 µM

Q: And the LC50 (NCI-H460; read-out: LC50)?
A: > 100 µM

Q: And the TGI (NCI-H460; read-out: TGI)?
A: 11.7 µM

Q: And the GI50 (NCI-H460; read-out: pGI50 (converted))?
A: 2.82 µM

Q: And the LC50 (NCI-H460; read-out: pLC50 (converted))?
A: > 100 µM

Q: And the TGI (NCI-H460; read-out: pTGI (converted))?
A: 11.7 µM

Q: And the GI50 (MOLT-4; read-out: GI50)?
A: 2.05 µM

Q: What about the CC50 (MOLT-4; [17]) of the same compound?
A: > 100 µM

Q: And the TGI (MOLT-4; read-out: TGI)?
A: 5.14 µM

Q: And the GI50 (MOLT-4; read-out: pGI50 (converted))?
A: 2.04 µM

Q: And the CC50 (MOLT-4; [18])?
A: > 100 µM

Q: And the TGI (MOLT-4; read-out: pTGI (converted))?
A: 5.13 µM

Q: What about the growth at 0.01 µM (IGROV-1 [4]) of the same compound?
A: 109%

Q: And the growth at 0.01 µM (MDA-MB-435)?
A: 98%

Q: And the growth at 0.01 µM (HCT-15 [5])?
A: 100%

Q: What about the growth at 0.01 µM (COLO 205 [6]) of the same compound?
A: 107%

Q: What about the growth at 0.01 µM (RPMI-8226) of the same compound?
A: 96%

Q: What about the GI50 (MDA-MB-231 [7]; read-out: GI50) of the same compound?
A: 1.65 µM

Q: What about the CC50 (MDA-MB-231 [7]; [17]) of the same compound?
A: 5.98 µM

Q: What about the TGI (MDA-MB-231 [7]; read-out: TGI) of the same compound?
A: 3.14 µM

Q: What about the GI50 (MDA-MB-231 [7]; read-out: pGI50 (converted)) of the same compound?
A: 1.66 µM

Q: What about the CC50 (MDA-MB-231 [7]; [18]) of the same compound?
A: 6.03 µM

Q: What about the TGI (MDA-MB-231 [7]; read-out: pTGI (converted)) of the same compound?
A: 3.16 µM

Q: What about the GI50 (MCF7; read-out: GI50) of the same compound?
A: 3.09 µM

Q: What about the CC50 (MCF7; [17]) of the same compound?
A: > 100 µM

Q: What about the TGI (MCF7; read-out: TGI) of the same compound?
A: 16.5 µM

Q: And the GI50 (MCF7; read-out: pGI50 (converted))?
A: 3.09 µM

Q: What about the CC50 (MCF7; [18]) of the same compound?
A: > 100 µM

Q: And the TGI (MCF7; read-out: pTGI (converted))?
A: 16.6 µM

Q: What about the GI50 (A498; read-out: GI50) of the same compound?
A: 1.54 µM

Q: And the CC50 (A498; [17])?
A: 7.38 µM

Q: What about the TGI (A498; read-out: TGI) of the same compound?
A: 3.37 µM

Q: And the GI50 (A498; read-out: pGI50 (converted))?
A: 1.55 µM

Q: And the CC50 (A498; [18])?
A: 7.41 µM

Q: What about the TGI (A498; read-out: pTGI (converted)) of the same compound?
A: 3.39 µM

Q: And the GI50 (OVCAR-3; read-out: GI50)?
A: 1.95 µM

Q: And the TGI (OVCAR-3; read-out: TGI)?
A: 3.61 µM

Q: And the GI50 (OVCAR-3; read-out: pGI50 (converted))?
A: 1.95 µM

Q: And the TGI (OVCAR-3; read-out: pTGI (converted))?
A: 3.63 µM

Q: What about the GI50 (M14; read-out: GI50) of the same compound?
A: 1.81 µM

Q: What about the TGI (M14; read-out: TGI) of the same compound?
A: 3.92 µM

Q: What about the GI50 (M14; read-out: pGI50 (converted)) of the same compound?
A: 1.82 µM

Q: And the TGI (M14; read-out: pTGI (converted))?
A: 3.89 µM

Q: What about the GI50 (Malme-3M [8]; read-out: GI50) of the same compound?
A: 1.83 µM

Q: And the CC50 (Malme-3M [8]; [17])?
A: 7.7 µM

Q: And the TGI (Malme-3M [8]; read-out: TGI)?
A: 3.75 µM

Q: What about the GI50 (Malme-3M [8]; read-out: pGI50 (converted)) of the same compound?
A: 1.82 µM

Q: What about the CC50 (Malme-3M [8]; [18]) of the same compound?
A: 7.76 µM

Q: And the TGI (Malme-3M [8]; read-out: pTGI (converted))?
A: 3.72 µM

Q: What about the growth at 100 µM (T47D) of the same compound?
A: -36%

Q: What about the growth at 100 µM [9] of the same compound?
A: -38%

Q: And the growth at 100 µM (UO-31 [10])?
A: -66%

Q: And the growth at 100 µM (OVCAR-4)?
A: -21%

Q: And the growth at 100 µM (IGROV-1 [11])?
A: -58%

Q: And the growth at 100 µM (SNB-75)?
A: -47%

Q: And the growth at 100 µM (SNB-19)?
A: -40%

Q: And the growth at 100 µM (SF-539)?
A: -68%

Q: And the growth at 100 µM (KM12 [12])?
A: -29%

Q: And the growth at 1 µM (MDA-MB-231 [13])?
A: 89%

Q: What about the growth at 1 µM (UO-31 [14]) of the same compound?
A: 89%

Q: And the growth at 1 µM (TK-10)?
A: 106%

Q: What about the growth at 1 µM (786-0) of the same compound?
A: 97%

Q: What about the growth at 1 µM (IGROV-1 [15]) of the same compound?
A: 111%

Q: What about the growth at 1 µM (UACC-62) of the same compound?
A: 78%

Q: What about the growth at 1 µM (Malme-3M [16]) of the same compound?
A: 92%

Q: And the growth at 1 µM (SR)?
A: 89%

Q: What about the growth at 0.1 µM (BT-549) of the same compound?
A: 100%

Q: And the growth at 0.1 µM (RXF 393)?
A: 95%

Q: What about the growth at 0.1 µM (OVCAR-8) of the same compound?
A: 99%

Q: What about the growth at 0.1 µM (OVCAR-5) of the same compound?
A: 103%

Q: And the growth at 0.01 µM (PC-3)?
A: 92%

Reference: ChEMBL document CHEMBL2413072, “Synthesis and in vitro anticancer studies of novel C-2 arylidene congeners of lantadenes” (2013)
